Reference: publication PMC2994686, “The Function and Three-Dimensional Structure of a Thromboxane A2/Cysteinyl Leukotriene-Binding Protein from the Saliva of a Mosquito Vector of the Malaria Parasite” (PLoS Biology, 2010)
Entries after “also recorded” stand apart in the source; their conditions may differ. Where two headings read alike, the source gives them in different places.

What was measured:
[1] = molecular target: T1, AnSt-D7L1 (Anopheles stephensi, UniProt Q95NY5); settings: for binding to AnSt-D7L1 by ITC (in words): ITC screen of candidate ligands, partly unpublished data; for Kd: read-out: dissociation constant (Kd), ITC, 35°C, 40 µM ligand in syringe, 4 µM AnSt-D7L1 in cell, single binding site model
Method: (§1) Binding experiments were performed on a MicroCal VP-ITC instrument. For CysLT experiments the syringe contained a 20 µM ligand solution, and the AnSt-D7L1 concentration in the cell was 2 µM. For the TXA2 analog experiments the ligand solution used to fill the syringe was 40 µM and the AnSt-D7L1 concentration in the cell was 4 µM. Assays were performed at 35°C with successive 10 µL injections.
(§2) Binding experiments were performed on a MicroCal VP-ITC instrument. For these experiments, the ligand solution used to fill the syringe was 80 µM and AnSt-D7L1 concentration in the calorimeter cell was 8 µM. Assays were performed at 35°C with successive 10 µL injections.
(§3) AnSt-D7L1 was prepared for ITC experiments by dialysis against 20 mM Tris-HCl 0.15 M NaCl pH 7.4 for 1 h. Binding experiments were performed on a MicroCal VP-ITC instrument. Aliquots of lipid stock solutions in ethanol or methyl acetate were dried under a stream of nitrogen in a glass vial, then dissolved in 20 mM Tris HCl, 0.15 M NaCl pH 7.4, vortexed, and sonicated for 8 min. Non-lipidic ligands were dissolved in 20 mM Tris HCl, 0.15 M NaCl pH 7.4. All solutions were degassed prior to use. Assays were performed at 35°C with successive 10 µL injections, with a spacing interval of 180 s and a syringe stirring speed of 290 rpm. In all the cases, after subtraction of the heats of dilution, the measured heats were converted to enthalpies and analyzed by fitting to a single-site binding model using the Microcal Origin software.

[2] = molecular target: CysLT1; set-up: method as in PMID 16107763; settings: read-out: affinity of CysLT1; cited from earlier work
[3] = molecular target: T1, AnSt-D7L1; assay: biochemical
Method: as §1, §2, §3

[4] = tested on: AeD7; set-up: method as in PMID 19234127; settings: cited from earlier work
[5] = tested on: Human platelet-rich plasma; assay: Platelet aggregation assay in an aggregometer; assay type: cell-based; settings: for effect on U46619-induced platelet aggregation / effect on U46619-induced platelet shape change: 1.3 µM U46619; for effect on U46619-induced platelet shape change: AnSt-D7L1 2 and 3 µM, SQ 29,548 1 µM without protein; for effect on collagen-induced platelet aggregation (comparison with TXA2 antagonists): 3 µM AnSt-D7L1, SQ 29,548, or indomethacin pre-treatment
Method: Figure 5 Effect of AnSt-D7L1 on platelet aggregation promoted by different agonists. Platelet-rich human plasma was incubated with different concentrations of AnSt-D7L1 for 1 min prior to the addition of agonists as indicated. Aggregation was measured at 37°C on an aggregometer. Unless otherwise stated protein concentration (µM) is shown under respective curves. (A) Concentration dependence of AnSt-D7L1 inhibition of collagen-mediated platelet aggregation at low concentration of collagen. (B) Lack of inhibition of collagen-mediated platelet aggregation by AnSt-D7L1 at high concentration of collagen. (C) Lack of inhibition of convulxin-mediated platelet aggregation by AnSt-D7L1. (D) ADP-mediated platelet aggregation in the absence of any protein (control), in the presence of 3 µM AnSt-D7L1, or in the presence of 3 µM RPAI1, which is known to bind ADP. (E) Lack of effect of AnSt-D7L1 on PMA-induced platelet aggregation. (F) Lack of effect of AnSt-D7L1 on ristocetin-induced platelet aggregation.
Figure 6 AnSt-D7L1 affects platelet aggregation promoted by TXA2. Platelet-rich human plasma was incubated with different concentrations of AnSt-D7L1 or buffer, as indicated, for 1 min prior to the addition of agonists indicated in each panel. (A) Aggregation mediated by collagen in the presence of TXA2 antagonists. The effect of 3 µM AnSt-D7L1 on collagen-induced aggregation was similar to the effect promoted by a thromboxane receptor (TP) antagonist (SQ 29,548) or by pre-incubating platelets with indomethacin, a general cyclooxygenase inhibitor. […] (B) AnSt-D7L1 has a dose dependent effect on U46619-induced platelet aggregation. Protein concentrations are shown on the bottom of each curve. […] (C) AnSt-D7L1 (3 µM) affects AA-induced platelet aggregation. […] Respective treatments are indicated in the bottom of each curve.
Platelets were prepared as described previously. Human platelet-rich plasma (∼2×10^5/µL final density) and Tyrode-BSA buffer in the presence or absence of AnSt-D7L1 (final volume 300 µL) were placed in an aggregometer and stirred at 1,200 rpm at 37°C for 1 min prior to the addition of different agonists. In experiments using the human TP (TXA2 receptor) antagonist SQ 29,548 or made in the presence of proteins (AnSt-D7L1 or RPAI-1), those compounds were added to the platelet suspension and Tyrode mix prior to addition of agonists. In experiments in which indomethacin, a general cycloxygenase inhibitor, was used, platelets were pre-incubated with the compound for 5 min prior to addition of agonists.

[6] = tested on: rat aorta; assay: Smooth muscle bioassay: U46619-induced contraction of rat aorta
Method: Figure 4 Smooth muscle contraction bioassay.
Tissue preparations were bathed in modified Tyrode solution (with 10 mM HEPES buffer, pH 7.4) during the course of the experiment, and the solutions were kept oxygenated by bubbling air into the bath.

[7] = molecular target: T1, AnSt-D7L1; assay: Incubation of LTC4 with AnSt-D7L1, gel filtration, HPLC and mass spectrometry (test for hydrolytic or enzymatic function); set-up: made in house; settings: incubated at 25°C; mass spectrum of bound versus free ligand
Method: Fractions containing the complex were then applied to a C18 HPLC column, eluted with methanol, and analyzed by mass spectrometry.
(B) LTC4 was injected alone in order to obtain a retention volume measurement for the free ligand. In both cases, the column was eluted with 100 mM ammonium acetate pH 7.2 at a flow rate of 60 µL per min. (0.39 MB TIF) Click here for additional data file.
Supplementary file pbio.1000547.s003.tif: Figure S3 Mass spectral analysis of the AnSt-D7L1-LTC4 complex after gel filtration chromatography. Top: The peak fraction from the gel filtration of Figure S2 (3 µl) was applied to a C18 column and eluted with 5% methanol 0.1% acetic acid for 10 min, then 5%–95% methanol 0.1% acetic acid (0.3 mm diameter column in 20 min at 3 µl/min). The eluent was analyzed directly by MS/MS. […] The inset is a sample collision-induced dissociation spectrum (35% intensity) recorded at 61–65 min. (2.15 MB TIF) Click here for additional data file.

[8] = molecular target: TP receptor; set-up: method as in PMID 18374420; settings: Gα12/13-coupled signaling; read-out: EC50 for TP-mediated shape change; cited from earlier work

T1 sequence (Q95NY5 19-315 limits assumed): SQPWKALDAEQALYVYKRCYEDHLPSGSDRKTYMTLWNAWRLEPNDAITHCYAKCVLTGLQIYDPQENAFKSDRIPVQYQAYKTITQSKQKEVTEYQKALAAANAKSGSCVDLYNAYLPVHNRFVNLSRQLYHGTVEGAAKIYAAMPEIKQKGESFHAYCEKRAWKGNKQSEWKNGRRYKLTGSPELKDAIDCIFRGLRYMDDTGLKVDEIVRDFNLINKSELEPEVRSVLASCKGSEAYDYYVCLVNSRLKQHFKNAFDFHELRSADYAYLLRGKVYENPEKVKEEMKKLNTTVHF

With Nc1ncnc2c1ncn2[C@@H]1O[C@H](COP(=O)(O)OP(=O)(O)O)[C@@H](O)[C@H]1O [ADP, adenosine diphosphate] the “binding to AnSt-D7L1 by ITC (in words)” value [1] was “Neither showed any detectable binding”.
For CCCCC/C=C\C\C=C/C=C/C=C/[C@@H](SC[C@H](N)C(=O)O)[C@@H](O)CCCC(=O)O [LTE4, leukotriene E4], the Kd [2] is given as about 100 nM.
For CCCCC[C@H](O)/C=C/[C@H]1[C@H](O)CC(=O)[C@@H]1C/C=C\CCCC(=O)O [PGE2, prostaglandin E2], the “binding to AnSt-D7L1 by ITC (in words)” value [1] was “affinities much lower than those seen with CysLTs and TXA2 analogs” and the Kd [3] was 1900 ± 200 nM.
In the case of CCCCC[C@H](O)/C=C/[C@H]1CC2CC(C2)[C@@H]1C/C=C\CCCC(=O)O [carbocyclic TXA2], the Kd [1] is reported as about 38 nM.
For CCCCC/C=C\C[C@@H](O)/C=C/C=C/C=C\[C@@H](O)CCCC(=O)O [LTB4, leukotriene B4], the “binding to AnSt-D7L1 by ITC (in words)” value [1] is given as “did not bind” and the “binding to AeD7 (in words)” value [4] is given as “low affinity”.
In the case of CCCCC[C@H](O)/C=C/[C@H]1C(=O)C[C@H](O)[C@@H]1C/C=C\CCCC(=O)O [PGD2], the “binding to AnSt-D7L1 by ITC (in words)” value [1] is reported as “affinities much lower than those seen with CysLTs and TXA2 analogs”.
For platelet activating factor [PAF], the “binding to AnSt-D7L1 by ITC (in words)” value [1] was “Neither showed any detectable binding”.
With CCCCC[C@H](O)/C=C/[C@@H]1[C@@H](C/C=C\CCCC(=O)O)[C@@H](O)C[C@H]1O [PGF2α, prostaglandin F2α] the “binding to AnSt-D7L1 by ITC (in words)” value [1] was “affinities much lower than those seen with CysLTs and TXA2 analogs” and the Kd [3] was 671 ± 61 nM.
In the case of “AnSt-D7L1: recombinant two-domain D7 salivary protein from An. stephensi that binds CysLTs and TXA2”, the “effect on U46619-induced platelet aggregation” value ([5]; 1 µM AnSt-D7L1) is reported as “dramatically inhibited aggregation”, the “effect on U46619-induced platelet aggregation” value ([5]; 2 and 3 µM AnSt-D7L1) is reported as “completely prevented aggregation” and the “effect on U46619-induced platelet shape change” value [5] is reported as “not completely inhibited”. For the same compound, the “effect on U46619-induced platelet aggregation” value ([5]; low AnSt-D7L1 concentrations, less than 1:1 ratio) was “delayed but did not prevent platelet aggregation”, the “effect on AA-induced platelet aggregation” value ([5]; AA as agonist, 3 µM AnSt-D7L1, or indomethacin pre-incubation without protein) was “drastically decreased” and the “inhibition of convulxin-induced platelet aggregation” value ([5]; GPVI agonist convulxin) was “inhibitory effect of AnSt-D7L1 was lost”. The “inhibition of collagen-induced platelet aggregation” value ([5]; collagen at high concentration) was “inhibitory effect of AnSt-D7L1 was lost”, the “effect on collagen-induced platelet aggregation (comparison with TXA2 antagonists)” value (“effect … (comparison with TXA2 antagonists)” below) [5] was “very similar” and the “inhibition of collagen-induced platelet aggregation” value ([5]; low collagen 1.6 µg/mL, 1 µM AnSt-D7L1) was “almost completely inhibited”. The “effect on the platelet response to collagen stimulation” value ([5]; low collagen, 0.03 µM AnSt-D7L1) was “sufficient to remove a significant fraction of the TXA2”, the “effect on the platelet aggregation response to collagen” value ([5]; low collagen, 0.1 µM AnSt-D7L1) was “eliminates most of the aggregation response” and the “inhibition of ADP-induced platelet shape change” value ([5]; minimal dose of ADP eliciting shape change, 3 µM protein) was “no inhibitory effect”. For the same compound, the “effect on PMA-induced platelet aggregation” value ([5]; protein kinase C activator PMA) was “no effect”, the “effect on ristocetin-induced platelet agglutination” value ([5]; ristocetin, VWF-dependent) was “no effect” and the “reversal of contraction induced by U46619” value ([6]; aorta pre-contracted with 1 µM U46619, 0.1 µM AnSt-D7L1 added after plateau) was “caused relaxation”. For the same compound, the “effect on U46619-induced contraction of aorta” value ([6]; pre-incubation with AnSt-D7L1, 0.1 µM U46619) was “inhibited; also recorded: no contraction” and the “increase of the amount of U46619 needed to promote contraction” value ([6]; pre-incubation with AnSt-D7L1, successive additions of 0.1 µM U46619) was “approximately 3 fold”.
With CCCCC/C=C\C\C=C/C=C/C=C/[C@@H](SC[C@H](NC(=O)CC[C@H](N)C(=O)O)C(=O)NCC(=O)O)[C@@H](O)CCCC(=O)O [LTC4, leukotriene C4] the “chemical modification of bound LTC4 by AnSt-D7L1” value [7] was “binds but does not chemically modify”.
In the case of CCCCC[C@H](O)/C=C/[C@@H]1[C@@H](C/C=C\CCCC(=O)O)[C@H]2CO[C@@H]1C2 [U46619], the Kd [1] is listed as about 98 nM, the “binding to AeD7 (in words)” value [4] is listed as “no detectable binding” and the EC50 [8] is listed as about 13 nM.
In the case of CCCCCC/C=C/C1C2CC(N=N2)C1C/C=C\CCCC(=O)O (stereo not shown) [U51605], the “binding to AnSt-D7L1 by ITC (in words)” value [1] is reported as “detectable but much weaker binding than U46619”.
With O=C(O)CCC/C=C\C[C@@H]1[C@H](CNNC(=O)Nc2ccccc2)[C@H]2CC[C@@H]1O2 [SQ 29,548] the “effect on U46619-induced platelet shape change” value [5] was “prevented” and the “effect … (comparison with TXA2 antagonists)” value [5] was “attenuated”.
With CNC[C@H](O)c1cccc(O)c1 [phenylephrine] the “contraction of aorta after relaxation by AnSt-D7L1” value ([6]; 3 µM phenylephrine added after relaxation) was “contracted normally”.
With CCCCC/C=C\C\C=C/C=C/C=C/[C@@H](SC[C@H](N)C(=O)NCC(=O)O)[C@@H](O)CCCC(=O)O [LTD4, leukotriene D4] the Kd [3] was 5 ± 1 nM.
In the case of CCCCC[C@H](O)/C=C/[C@H]1OC(O)C[C@H](O)[C@@H]1C/C=C\CCCC(=O)O (stereo partly shown) [TXB2, thromboxane B2], the Kd [3] is reported as 1300 ± 200 nM.
In the case of COc1ccc2c(c1)c(CC(=O)O)c(C)n2C(=O)c1ccc(Cl)cc1 [indomethacin], the “effect … (comparison with TXA2 antagonists)” value [5] is reported as “attenuated”.
In the case of CCCCC/C=C\C/C=C\C/C=C\C/C=C\CCCC(=O)O [AA, arachidonic acid], the “binding to AnSt-D7L1 by ITC (in words)” value [1] is reported as “no detectable binding”.
